Measurements from patent publication US9486461B2, “Methods and compositions for inducing apoptosis by stimulating ER stress” (UNIVERSITY OF SOUTHERN CALIFORNIA, priority 2007, dated 2016).

Columns and labels:
U251 glioblastoma cells [1] = test: Cell death ELISA, U251; format: cell-based, human; conditions: U251, 48 hours, concentrations of up to 100 μmol/L
Protocol: (§1) U251 glioblastoma cells were treated with different drugs, and various parameters of cell growth and cell death were comparatively analyzed. As controls, cells remained either non-treated (Co) or were treated with the solvent DMSO alone. (FIG. 8A) Cells were treated with 30 or 50 μM DMC for 48 hours and the effects on cell growth/survival and on cell death were determined by various assays. […] Below the three panels, the expression levels of the ER stress indicators CHOP, GRP78, and caspase 4 at the end of the 48 hour drug treatment is shown, as determined by Western blot analysis with specific antibodies (actin served as a loading control. (FIG. 8B) Cells were treated with various concentrations of different drugs for 48 hours, as indicated, and cell death was measured with the cell death ELISA kit. (FIG. 8C) Cells were treated with DMC or various coxibs and traditional NSAIDs for 48 hours, as indicated, and cell growth and survival was determined with the conventional MTT assay (control, non-treated cells were set at 100%). MTT assays were performed in 96-well plates with the use of 3.0-8.0×10^3 cells per well as described in detail elsewhere (34). In parallel, the expression levels of CHOP and GRP78 protein were determined by Western blot analysis.
Apoptosis in cell cultures in vitro was determined by using the Cell Death Detection ELISA kit (Roche Diagnostics, Indianapolis, Ind.) according to the manufacturer's instructions. This immunoassay specifically detects the histone region (H1, H2A, H2B, H3, and H4) of mononucleosomes and oligonucleosomes that are released during apoptosis. Ninety-six-well plates were seeded with 1,000 cells per well and read at 405 nm in a Microplate Autoreader (Model EL 311 SX; Bio-Tek Instruments, Inc., Winooski, Vt.).

[2] = tested on: Tumor-associated Brain Endothelial Cells (TuBEC); test: Trypan blue exclusion, tumor-associated brain endothelial cells; format: cell-based; conditions: TMZ 300 uM and 20 uM DMC, 48 hours, then 12 days without drug
Protocol: After drug treatment the cells were incubated for another 12 days in the absence of drug, in order to determine their long-term survival; at that time cytotoxicity was evaluated using the trypan blue exclusion technique. Results are presented as number of viable cells per group.
Tumor-associated Brain Endothelial Cells (TuBEC) were treated with TMZ (300 uM) and 20 uM DMC for 48 hours. The drugs were removed and cells were incubated for another 12 days; at that time cytotoxicity was evaluated using the trypan blue exclusion technique. Results are presented as number of viable cells per group.

U251 glioblastoma cells [3] = test: TUNEL assay in cell culture, U251; format: cell-based, human; conditions: U251, 30 and 50 μmol/L, 48 hours
Protocol: as §1
We next investigated the relationship of ER stress induction and cell death. […]

U251 glioblastoma cells [4] = test: Colony forming assay, U251; format: cell-based, human; conditions: U251, 30 and 50 μmol/L, 48 hours
Protocol: as §1, with “MTT assays were performed in 96-well plates with the use of 3.0-8.0×10^3 cells per well as described in detail elsewhere (34).” left out
Twenty-four hours after transfection with small interfering RNA (siRNA), the cells were seeded into six-well plates at 200 cells per well. […] Colonies were visualized by staining for 4 h with 1% methylene blue (in methanol) and then counted.

U251 glioblastoma cells [5] = test: Colony formation assay after siRNA transfection, U251; format: cell-based, human; conditions: 48 h
Protocol: U251 glioblastoma cells were transiently transfected with si-RNA directed at GRP78 (si-GRP78) or caspase 4 (si-Casp 4). As a control, an siRNA targeted at green fluorescent protein (si-GFP) was used. […] After 48 hours of drug treatment, the drugs were removed and the fraction of surviving cells was determined by colony forming assays. Shown is the percentage of surviving cells (where the number of colonies under non-drug treated conditions was set to 100%). […] (B) In order to verify the effectiveness of the si-RNAs, Western blot analysis of the target proteins was performed. Note that the knock-down of GRP78 leads to increased levels of CHOP protein, as expected from the model of ER stress, where GRP78 signaling is upstream of CHOP.
U251 cells were transiently transfected with si-RNA directed at GRP78 (si-GRP78). As a control, an siRNA targeted at green fluorescent protein (si-GFP) was used. […] In parallel, transfected control cultures received no drug treatment or treatment with solvent (DMSO) alone. After 48 hours, the drugs were removed and the fraction of surviving cells was determined by colony forming assays over the course of 12-14 days. […]
Twenty-four hours after transfection with small interfering RNA (siRNA), the cells were seeded into six-well plates at 200 cells per well. […] Colonies were visualized by staining for 4 h with 1% methylene blue (in methanol) and then counted. […]

U87 glioblastoma tumors = test: TUNEL assay of xenograft tumor tissue
[6] = tested on: CHOP protein in U87 glioblastoma tumor tissue; conditions: shown previously (ref. 39); cited from earlier work

SMILES	induction of cell death/apoptosis (cell death ELISA) (U251 glioblastoma cells [1])	susceptibility of tumor vascular endothelial cells to TMZ [2]	apoptosis (TUNEL) (U251 glioblastoma cells [3])	survival in colony-forming assays (U251 glioblastoma cells [4])	cell survival when GRP78 levels were reduced by siRNA (vs si-GFP) (U251 glioblastoma cells [5]; U251, 40 μM Cxb or 30 μM DMC)	cell survival when caspase-4 expression was diminished by siRNA (vs si-GFP) (U251 glioblastoma cells [5]; U251, 60 μM Cxb or 40 μM DMC)	TUNEL staining of tumor tissue (U87 glioblastoma tumors; U87MG xenograft, 1 mg/kg BZM and 7.5 mg/kg DMC individually or in combination, 50 h)	apoptosis in the tumor tissue (U87 glioblastoma tumors; U87 xenograft, short-term drug treatment)	dosage at which ER stress in tumor tissue in vivo begins to appear [6]
Cc1ccc(-c2cc(C(F)(F)F)nn2-c2ccc(S(N)(=O)=O)cc2)cc1 [celecoxib, 4-[5-(4-methylphenyl)-3-(trifluoromethyl)-1H-pyrazol-1-yl]benzenesulfonamide]	able to induce cell death/apoptosis								
Cc1ccc(C)c(-c2cc(C(F)(F)F)nn2-c2ccc(S(N)(=O)=O)cc2)c1 [DMC, 4-[5-(2,5-dimethylphenyl)-3-(trifluoromethyl)-1H-pyrazol-1-yl]benzenesulfonamide]		increased the susceptibility	substantially increased apoptosis	greatly reduced survival	less cell survival	increased	nor did it substantially increase TUNEL staining	significantly increased apoptosis	> 10 mg/kg
